Here are results for 2 compounds from US20110065787A1, “THERAPEUTIC AGENT FOR MALE STERILITY” (SBI ALApromo., Ltd., priority 2008, published 2011).

For assay [1], the system named is healthy volunteers, married men. As to the kind of experiment: Subjective estimation of erectile effect in healthy volunteers (Example 3). The class given is in vivo, human. The method, then:
1 g of ALA hydrochloride was dissolved into 50 mL of 5% glucose aqueous solution (test solution), and administered to 7 healthy volunteers, married men from 28 to 44 years old. They ingested orally the test solution (13.9 to 22.2 mg/kg) without taking breakfast.

Assay [2] has as its system male rats (Slc:Wistar). As to the kind of experiment: Crossing test: conception rate of copulated animals (Example 2). Type of assay: in vivo, rat. The method, then:
Forty 10 week-old male rats (Slc:Wistar) and forty 9 week-old female rats were obtained, quarantined for 7 days, and were habituated and bred for 13 days. δ-amino levulinic acid (herein after referred to as ALA) phosphate was weighed, dissolved into injection solvent to prepare a 50 mg/mL solution.
After day 15 from administration of Example 1, crossing period was set as 14 days, and 1 female was housed per 1 male in the control group and in the 500 mg/kg-group.

The subject of assay [3] is male rats (Slc:Wistar). Put plainly: Organ weights at autopsy of male rats after repeated oral administration (Example 1). The settings on record: 500 mg/kg oral once a day, compared to the control group, FIG. 1.
Setting [4] is: 1 g oral in 5% glucose solution (13.9 to 22.2 mg/kg), one line per volunteer 1-7, hydrochloride.

Each structure is given as a SMILES string. Entries after “also recorded” stand apart in the source; their conditions may differ.

As for `Cl.NCC(=O)CCC(=O)O` [ALA hydrochloride, δ-amino levulinic acid hydrochloride], in assay [1] (setting [4]), the “Note (sexual intercourse, pregnancy)” value is listed as “pregnant; also recorded: No sexual intercourse; also recorded: No sexual intercourse,” and the “Result (erectile, individual subjective estimation)” value is on record as “Δ (when no change is observed by (Δ))”. Also, the “volunteers in whom erectile was observed on that night” value in assay [1] (1 g oral, 7 healthy volunteers) is 5 out of 7. For the same compound, the “volunteers who had sexual intercourse, and pregnancy was confirmed” value in assay [1] (1 g oral, among the volunteers with erectile) is 2.

As for `NCC(=O)CCC(=O)O.O=P(O)(O)O` [ALA phosphate, δ-amino levulinic acid phosphate], the “conception succeeded (number of rats)” value in assay [2] (500 mg/kg-group, control 16 out of 20) is 17 out of 19. Further, the “conception rate of copulated animals” value in assay [2] (male rats 500 mg/kg oral once a day, crossing period 14 days after day 15, control group 80.0%) came to 94.4%. For the same compound, in assay [3], the “net weight of seminal vesicle” value is recorded as “significant high level” and the “weight volume ratio to the body weight of seminal vesicle” value is on record as “significant high level”.
